Test results taken from the supplement of paper PMC10307832.

How the values were obtained:
Experiment in all cases: relative viability (nuclei count vs DMSO), 5 days (fraction); higher = more cells survive
[1] = tested on: NCI-H1355
Method in brief: (§1)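 The day after seeding in 1536-well plates, lung cancer cell lines were treated by pin tool with a single drug, or with a fixed anchor-drug dose together with five library-drug doses (not always all listed) in √10 steps. After 5 days, a combined fix-and-stain solution (final 0.05% Triton X-100, 1% formaldehyde, 1 ug/ml Hoechst) was added. Nuclei counted on 4× images gave relative viability as treated counts over vehicle counts, reported as the median of duplicate plates.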

[2] = tested on: NCI-H2228
Method in brief: as §1

[3] = tested on: A-427
Method in brief: as §1

[4] = tested on: NCI-H596
Method in brief: as §1

[5] = tested on: NCI-H3122
Method in brief: as §1

[6] = tested on: NCI-H1650
Method in brief: as §1

[7] = tested on: NCI-H1755
Method in brief: as §1

[8] = tested on: H3255
Method in brief: as §1

[9] = tested on: SW 1573
Method in brief: as §1

[10] = tested on: LK-2
Method in brief: as §1

[11] = tested on: NCI-H2347
Method in brief: as §1

[12] = tested on: NCI-H1666
Method in brief: as §1

[13] = tested on: NCI-H441
Method in brief: as §1

[14] = tested on: NCI-H520
Method in brief: as §1

[15] = tested on: NCI-H2085
Method in brief: as §1

[16] = tested on: NCI-H1944
Method in brief: as §1

[17] = tested on: NCI-H358
Method in brief: as §1

[18] = tested on: NCI-H838
Method in brief: as §1

[19] = tested on: NCI-H322M
Method in brief: as §1

[20] = tested on: NCI-H650
Method in brief: as §1

[21] = tested on: EKVX
Method in brief: as §1

[22] = tested on: NCI-H460
Method in brief: as §1

[23] = tested on: ChaGo-K-1
Method in brief: as §1

O=c1[nH]c2ccccc2n1C1CCN(CCCC(c2ccc(F)cc2)c2ccc(F)cc2)CC1 [Pimozide] + COc1cc2c(Oc3ccc(NC(=O)C4(C(=O)Nc5ccc(F)cc5)CC4)cc3F)ccnc2cc1OCCCN1CCOCC1 [Foretinib] (partner 0.25 µM)
relative viability ([1]; first compound 0.08 µM): 0.808 | relative viability ([1]; first compound 0.253 µM): 0.923 | relative viability ([1]; first compound 0.8 µM): 0.888 | relative viability ([1]; first compound 2.53 µM): 0.886 | relative viability ([1]; first compound 8 µM): 1 | relative viability ([2]; first compound 0.08 µM): 0.863 | relative viability ([2]; first compound 0.253 µM): 0.839 | relative viability ([2]; first compound 0.8 µM): 0.574 | relative viability ([2]; first compound 2.53 µM): 0.831 | relative viability ([2]; first compound 8 µM): 0.612 | relative viability ([3]; first compound 0.08 µM): 1.02 | relative viability ([3]; first compound 0.253 µM): 1.04 | relative viability ([3]; first compound 0.8 µM): 0.976 | relative viability ([3]; first compound 2.53 µM): 0.669 | relative viability ([3]; first compound 8 µM): 0.966 | relative viability ([4]; first compound 0.08 µM): 0.883 | relative viability ([4]; first compound 0.253 µM): 0.902 | relative viability ([4]; first compound 0.8 µM): 1.02 | relative viability ([4]; first compound 2.53 µM): 0.78 | relative viability ([4]; first compound 8 µM): 0.821 | relative viability ([5]; first compound 0.08 µM): 0.911 | relative viability ([5]; first compound 0.253 µM): 1 | relative viability ([5]; first compound 0.8 µM): 0.91 | relative viability ([5]; first compound 2.53 µM): 0.968 | relative viability ([5]; first compound 8 µM): 0.923 | relative viability ([6]; first compound 0.08 µM): 0.72 | relative viability ([6]; first compound 0.253 µM): 1.23 | relative viability ([6]; first compound 0.8 µM): 0.959 | relative viability ([6]; first compound 2.53 µM): 1.17 | relative viability ([6]; first compound 8 µM): 0.933 | relative viability ([7]; first compound 0.08 µM): 0.929 | relative viability ([7]; first compound 0.253 µM): 0.928 | relative viability ([7]; first compound 0.8 µM): 0.874 | relative viability ([7]; first compound 2.53 µM): 0.948 | relative viability ([7]; first compound 8 µM): 0.812 | relative viability ([8]; first compound 0.253 µM): 0.781 | relative viability ([8]; first compound 0.8 µM): 0.775 | relative viability ([8]; first compound 2.53 µM): 0.78 | relative viability ([8]; first compound 8 µM): 0.894 | relative viability ([9]; first compound 0.08 µM): 0.803 | relative viability ([9]; first compound 0.253 µM): 0.946 | relative viability ([9]; first compound 0.8 µM): 0.86 | relative viability ([9]; first compound 2.53 µM): 0.892 | relative viability ([9]; first compound 8 µM): 1.04 | relative viability ([10]; first compound 0.08 µM): 1.65 | relative viability ([10]; first compound 0.253 µM): 0.98 | relative viability ([10]; first compound 2.53 µM): 0.875 | relative viability ([10]; first compound 8 µM): 1.24 | relative viability ([11]; first compound 0.08 µM): 0.883 | relative viability ([11]; first compound 0.253 µM): 0.622 | relative viability ([11]; first compound 0.8 µM): 0.964 | relative viability ([11]; first compound 2.53 µM): 1.35 | relative viability ([11]; first compound 8 µM): 1.07 | relative viability ([12]; first compound 0.08 µM): 0.952 | relative viability ([12]; first compound 0.253 µM): 0.939 | relative viability ([12]; first compound 0.8 µM): 0.941 | relative viability ([12]; first compound 2.53 µM): 0.867 | relative viability ([12]; first compound 8 µM): 0.857 | relative viability ([13]; first compound 0.08 µM): 1.09 | relative viability ([13]; first compound 0.253 µM): 1.16 | relative viability ([13]; first compound 0.8 µM): 1.1 | relative viability ([13]; first compound 2.53 µM): 0.948 | relative viability ([13]; first compound 8 µM): 0.922 | relative viability ([14]; first compound 0.08 µM): 0.886 | relative viability ([14]; first compound 0.253 µM): 0.779 | relative viability ([14]; first compound 0.8 µM): 0.618 | relative viability ([14]; first compound 2.53 µM): 0.916 | relative viability ([14]; first compound 8 µM): 0.898 | relative viability ([15]; first compound 0.08 µM): 0.956 | relative viability ([15]; first compound 0.253 µM): 0.899 | relative viability ([15]; first compound 0.8 µM): 1.1 | relative viability ([15]; first compound 2.53 µM): 0.909 | relative viability ([15]; first compound 8 µM): 0.949 | relative viability ([16]; first compound 0.08 µM): 0.901 | relative viability ([16]; first compound 0.253 µM): 0.891 | relative viability ([16]; first compound 0.8 µM): 0.807 | relative viability ([16]; first compound 2.53 µM): 0.735 | relative viability ([16]; first compound 8 µM): 0.817 | relative viability ([17]; first compound 0.08 µM): 0.671 | relative viability ([17]; first compound 0.253 µM): 0.661 | relative viability ([17]; first compound 0.8 µM): 0.578 | relative viability ([17]; first compound 2.53 µM): 0.562 | relative viability ([17]; first compound 8 µM): 0.695 | relative viability ([18]; first compound 0.08 µM): 1.02 | relative viability ([18]; first compound 0.253 µM): 1.11 | relative viability ([18]; first compound 0.8 µM): 1.08 | relative viability ([18]; first compound 2.53 µM): 1.03 | relative viability ([18]; first compound 8 µM): 1.04 | relative viability ([19]; first compound 0.253 µM): 1.04 | relative viability ([19]; first compound 0.8 µM): 0.85 | relative viability ([19]; first compound 2.53 µM): 0.942 | relative viability ([19]; first compound 8 µM): 0.844 | relative viability ([20]; first compound 0.08 µM): 1.07 | relative viability ([20]; first compound 0.253 µM): 1.02 | relative viability ([20]; first compound 0.8 µM): 1 | relative viability ([20]; first compound 2.53 µM): 1.04 | relative viability ([20]; first compound 8 µM): 1.04 | relative viability ([21]; first compound 0.08 µM): 0.196 | relative viability ([21]; first compound 0.253 µM): 0.827 | relative viability ([21]; first compound 0.8 µM): 0.764 | relative viability ([21]; first compound 2.53 µM): 0.747 | relative viability ([21]; first compound 8 µM): 0.908 | relative viability ([22]; first compound 0.08 µM): 0.973 | relative viability ([22]; first compound 0.253 µM): 1.03 | relative viability ([22]; first compound 0.8 µM): 0.872 | relative viability ([22]; first compound 2.53 µM): 0.864 | relative viability ([22]; first compound 8 µM): 0.867 | relative viability ([23]; first compound 0.08 µM): 0.937 | relative viability ([23]; first compound 0.253 µM): 0.899 | relative viability ([23]; first compound 0.8 µM): 0.879 | relative viability ([23]; first compound 2.53 µM): 0.811 | relative viability ([23]; first compound 8 µM): 0.908
